Experimental findings from US10294202B2, “Pyrrolidinones as herbicides” (FMC Corporation, priority 2013, dated 2019) are described below.

One experiment deals with kochia. Nature of the experiment: Test A pre-/postemergence herbicide test. In kind it is in vivo, Kochia scoparia. In a few lines: (§1)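 Approximately 10 days after treatment in the greenhouse, plants were compared with untreated controls and given a 0–100 visual injury rating. Applications: preemergence directed soil spray; postemergence on 2–10 cm plants at the one- to two-leaf stage.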

The next experiment relates to ragweed. Nature of the experiment: Test A pre-/postemergence herbicide test. In kind it is in vivo, Ambrosia elatior. In a few lines:
as §1

The test system of the next experiment is ryegrass, Italian. Briefly: Test A pre-/postemergence herbicide test. The experiment is classed as in vivo, Lolium multiflorum. In a few lines: as §1
For a further experiment, the system named is blackgrass. Nature of the experiment: Test A postemergence herbicide test. In kind it is in vivo, Alopecurus myosuroides. In a few lines:
(§2)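 Visual injury rating, 0 (no effect) to 100 (complete control), versus untreated controls ~10 days after treatment. Postemergence spray applied at one- to two-leaf stage, plants 2–10 cm tall, potted in loam soil/sand. Greenhouse-held.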

For another experiment, the system named is galium. Briefly: Test A postemergence herbicide test. The experiment is classed as in vivo, Galium aparine. In a few lines:
as §2

The mark [1] stands for this setting: Postemergence, 125 g ai/ha, 0 to 100 scale, 0 is no effect, 100 is complete control.
Where [2] appears, read: Postemergence, 500 g ai/ha, 0 to 100 scale (0 no effect, 100 complete control).
The mark [3] stands for this setting: Preemergence, 125 g ai/ha, 0 to 100 scale where 0 is no effect and 100 is complete control.
Where [4] appears, read: preemergence, 500 g ai/ha, 0 to 100 scale, 0 is no effect and 100 is complete control.
The mark [5] stands for this setting: Postemergence, 125 g ai/ha, visual rating on 0 to 100 scale (0 no effect, 100 complete control), approx. 10 days.
Setting [6] is: 125 g ai/ha, 0 to 100 scale, 0 is no effect, 100 is complete control.
Where [7] appears, read: 500 g ai/ha, 0 to 100 scale (0 no effect, 100 complete control).
Setting [8] is: Preemergence, 500 g ai/ha, visual rating on 0 to 100 scale (0 no effect, 100 complete control).
Where [9] appears, read: 125 g ai/ha, visual rating on 0 to 100 scale (0 no effect, 100 complete control), approx. 10 days.
Where [10] appears, read: 125 g ai/ha, visual rating, 0 to 100 scale, 0 no effect, 100 complete control, approximately 10 days, preemergence.

`O=C1NCC(c2cc(F)cc(F)c2)C1C(=O)Nc1ccccc1Cl` (racemic) [Compound 280]: the “Plant response rating, Kochia” value in the experiment with kochia (setting [1]), with kochia (setting [2]), with kochia (setting [3]) and in the experiment on kochia (setting [4]) was 0 throughout. The “Plant response rating, Ragweed” value in the experiment on ragweed (setting [5]), in the experiment with ragweed (setting [2]), in the experiment with ragweed (setting [3]) and in the experiment with ragweed (setting [4]) was 0 throughout. The “Plant response rating, Ryegrass, Italian” value is listed as 0 in the experiment on ryegrass, Italian (setting [5]); 0 with ryegrass, Italian (setting [2]); 0 with ryegrass, Italian (setting [3]); 0 in the experiment with ryegrass, Italian (setting [4]). Also, the “Plant response rating, Blackgrass” value in the experiment on blackgrass (setting [6]) and with blackgrass (setting [7]) was 0 throughout. Moreover, the “Plant response rating, Galium” value in the experiment with galium (setting [6]) and with galium (setting [7]) was 0 throughout.
In the case of `O=C1NCC(c2ccc(OC(F)F)cc2)C1C(=O)Nc1cccc(F)c1F` (racemic) [Compound 350], the “Plant response rating, Kochia” value in the experiment with kochia (setting [5]) came out at 70; with kochia (setting [3]), 80. For the same compound, in the experiment with kochia (setting [8]), the “Kochia plant response rating” value is 80. Besides, the “Plant response rating, Ragweed” value was determined as 0 with ragweed (setting [5]) and 30 with ragweed (setting [3]). Moreover, the “Ragweed plant response rating” value with ragweed (setting [8]) is reported as 30. Further, the “Plant response rating, Ryegrass, Italian” value is on record as 0 in the experiment with ryegrass, Italian (setting [5]) and 0 in the experiment with ryegrass, Italian (setting [3]). Moreover, in the experiment with ryegrass, Italian (setting [8]), the “Ryegrass, Italian plant response rating” value amounted to 0. The “Plant response rating, Blackgrass” value in the experiment with blackgrass (setting [9]) and in the experiment on blackgrass (setting [7]) was 50 throughout. Besides, the “Plant response rating, Galium” value in the experiment on galium (setting [9]) turned out to be 60.
As for `O=C1NCC(c2ccc(Cl)cc2)C1C(=O)Nc1cccc(F)c1F` (stereo not drawn) [Compound 218], the “Plant response rating, Kochia” value is listed as 30 in the experiment with kochia (setting [10]), 50 in the experiment with kochia (setting [1]) and 70 in the experiment with kochia (setting [4]). In the experiment with kochia (Postemergence, 500 g ai/ha), the “Kochia plant response rating (0 to 100 scale, 0 is no effect, 100 is complete control)” value came out at 60. The figures for the “Plant response rating, Ragweed” value in the experiment with ragweed (setting [10]), with ragweed (setting [1]) and in the experiment on ragweed (setting [4]) were 0, 0 and 50, respectively. For the same compound, the “Ragweed plant response rating (0 to 100 scale, 0 is no effect, 100 is complete control)” value in the experiment on ragweed (Postemergence, 500 g ai/ha) turned out to be 50. Moreover, the “Plant response rating, Ryegrass, Italian” value came out at 40 in the experiment on ryegrass, Italian (setting [10]); 0 with ryegrass, Italian (setting [1]); 60 in the experiment on ryegrass, Italian (setting [4]). Also, in the experiment with ryegrass, Italian (Postemergence, 500 g ai/ha), the “Ryegrass, Italian plant response rating (0 to 100 scale, 0 is no effect, 100 is complete control)” value came to 30. In addition, in the experiment on blackgrass (setting [6]), the “Plant response rating, Blackgrass” value came out at 20. Also, the “Blackgrass plant response rating (0 to 100 scale, 0 is no effect, 100 is complete control)” value in the experiment on blackgrass (500 g ai/ha) is reported as 40. Moreover, in the experiment with galium (setting [6]), the “Plant response rating, Galium” value is 40. The “Galium plant response rating (0 to 100 scale, 0 is no effect, 100 is complete control)” value in the experiment on galium (500 g ai/ha) is recorded as 60.
Consider `O=C1NCC(c2ccc(C(F)(F)F)cc2)C1C(=O)Nc1ccccc1F` (stereo not drawn) [Compound 231], for which the figures for the “Plant response rating, Kochia” value in the experiment on kochia (setting [10]), in the experiment on kochia (setting [1]) and with kochia (setting [4]) were 70, 70 and 90, respectively. For the same compound, the “Kochia plant response rating (0 to 100 scale, 0 is no effect, 100 is complete control)” value with kochia (Postemergence, 500 g ai/ha) turned out to be 90. Besides, the “Plant response rating, Ragweed” value in the experiment with ragweed (setting [10]) came out at 70; in the experiment with ragweed (setting [1]), 20; in the experiment with ragweed (setting [4]), 90. Also, the “Ragweed plant response rating (0 to 100 scale, 0 is no effect, 100 is complete control)” value in the experiment on ragweed (Postemergence, 500 g ai/ha) is recorded as 50. Further, the “Plant response rating, Ryegrass, Italian” value is recorded as 40 with ryegrass, Italian (setting [10]); 20 in the experiment on ryegrass, Italian (setting [1]); 60 in the experiment on ryegrass, Italian (setting [4]). The “Ryegrass, Italian plant response rating (0 to 100 scale, 0 is no effect, 100 is complete control)” value in the experiment on ryegrass, Italian (Postemergence, 500 g ai/ha) worked out at 40. For the same compound, the “Plant response rating, Blackgrass” value in the experiment with blackgrass (setting [6]) is recorded as 40. For the same compound, the “Blackgrass plant response rating (0 to 100 scale, 0 is no effect, 100 is complete control)” value in the experiment with blackgrass (500 g ai/ha) amounted to 60. In addition, in the experiment with galium (setting [6]), the “Plant response rating, Galium” value is listed as 40. Also, the “Galium plant response rating (0 to 100 scale, 0 is no effect, 100 is complete control)” value in the experiment with galium (500 g ai/ha) was 50.
For the compound `CN1CC(c2cccc(C(F)(F)F)c2)C(C(=O)Nc2cccc(F)c2F)C1=O` (stereo not drawn) [Compound 305], the “Plant response rating, Kochia” value with kochia (setting [5]) is 30; in the experiment with kochia (setting [2]), 70; in the experiment on kochia (setting [3]) it was 70. Further, the “Kochia plant response rating” value with kochia (setting [8]) is 70. Further, the “Plant response rating, Ragweed” value in the experiment on ragweed (setting [5]) was 0; with ragweed (setting [2]), 0; in the experiment with ragweed (setting [3]), 30. In addition, the “Ragweed plant response rating” value in the experiment on ragweed (setting [8]) was 50. In addition, the “Plant response rating, Ryegrass, Italian” value in the experiment on ryegrass, Italian (setting [5]) is 60; with ryegrass, Italian (setting [2]) it was 70; with ryegrass, Italian (setting [3]), 70. Further, the “Ryegrass, Italian plant response rating” value in the experiment with ryegrass, Italian (setting [8]) is 90. In addition, the “Plant response rating, Blackgrass” value is 60 in the experiment on blackgrass (setting [9]) and 70 in the experiment on blackgrass (setting [7]). Further, the results for the “Plant response rating, Galium” value in the experiment on galium (setting [9]) and in the experiment on galium (setting [7]) were 50 and 70, respectively.
As to `CN1CC(c2ccc(C(F)(F)F)cc2)C(C(=O)Nc2cccc(F)c2F)C1=O` (stereo not drawn) [Compound 306], the “Plant response rating, Kochia” value with kochia (setting [5]) is listed as 30; with kochia (setting [2]), 70; in the experiment with kochia (setting [3]), 70. Besides, the “Kochia plant response rating” value with kochia (setting [8]) is 80. For the same compound, the figures for the “Plant response rating, Ragweed” value in the experiment with ragweed (setting [5]) and with ragweed (setting [2]) were 20 and 40, respectively. Further, in the experiment with ragweed (setting [8]), the “Ragweed plant response rating” value was determined as 80. The “Plant response rating, Ryegrass, Italian” value is 50 with ryegrass, Italian (setting [5]); 60 with ryegrass, Italian (setting [2]); 40 with ryegrass, Italian (setting [3]). Further, in the experiment on ryegrass, Italian (setting [8]), the “Ryegrass, Italian plant response rating” value was 80. Also, the results for the “Plant response rating, Blackgrass” value with blackgrass (setting [9]) and in the experiment on blackgrass (setting [7]) were 50 and 60, respectively. The entries for the “Plant response rating, Galium” value in the experiment on galium (setting [9]) and with galium (setting [7]) were 60 and 70, respectively.
Regarding `O=C1NCC(c2cccc(Br)c2)C1C(=O)Nc1ccc(F)c(F)c1F` (stereo not drawn) [Compound 310], the “Plant response rating, Kochia” value with kochia (setting [5]), in the experiment on kochia (setting [2]) and in the experiment on kochia (setting [3]) was 30 in each case. Also, the “Kochia plant response rating” value in the experiment on kochia (setting [8]) amounted to 70. In addition, the “Plant response rating, Ragweed” value in the experiment on ragweed (setting [5]) is 20; in the experiment on ragweed (setting [2]), 30; in the experiment with ragweed (setting [3]), 0. Further, in the experiment with ragweed (setting [8]), the “Ragweed plant response rating” value was determined as 0. For the same compound, the “Plant response rating, Ryegrass, Italian” value with ryegrass, Italian (setting [5]) was determined as 30; in the experiment on ryegrass, Italian (setting [2]) it was 30; in the experiment on ryegrass, Italian (setting [3]), 30. In addition, the “Ryegrass, Italian plant response rating” value with ryegrass, Italian (setting [8]) is listed as 40. Further, the “Plant response rating, Blackgrass” value came to 30 in the experiment on blackgrass (setting [9]) and 50 in the experiment with blackgrass (setting [7]). Further, the “Plant response rating, Galium” value in the experiment on galium (setting [9]) and in the experiment on galium (setting [7]) was 20 in each case.
For `CC(C)c1cccc(C2CNC(=O)C2C(=O)Nc2cccc(F)c2F)c1` (stereo not drawn) [Compound 319], the “Plant response rating, Kochia” value with kochia (setting [5]) is listed as 30; in the experiment with kochia (setting [2]), 50; in the experiment with kochia (setting [3]), 60. For the same compound, the “Kochia plant response rating” value in the experiment with kochia (setting [8]) amounted to 80. Also, the entries for the “Plant response rating, Ragweed” value in the experiment with ragweed (setting [5]), in the experiment on ragweed (setting [2]) and in the experiment with ragweed (setting [3]) were 20, 40 and 30, respectively. Also, the “Ragweed plant response rating” value with ragweed (setting [8]) was determined as 40. Also, the “Plant response rating, Ryegrass, Italian” value with ryegrass, Italian (setting [5]) was 30; with ryegrass, Italian (setting [2]), 50; in the experiment with ryegrass, Italian (setting [3]), 30. The “Ryegrass, Italian plant response rating” value in the experiment with ryegrass, Italian (setting [8]) is 60. Besides, the “Plant response rating, Blackgrass” value was 40 in the experiment with blackgrass (setting [9]) and 50 in the experiment with blackgrass (setting [7]). Further, the “Plant response rating, Galium” value is given as 30 in the experiment on galium (setting [9]) and 50 in the experiment on galium (setting [7]).
Turning to `O=C1NCC(c2cccc(C(F)(F)F)c2)C1C(=O)Nc1ccc(F)c(F)c1F` (stereo not drawn) [Compound 345], the entries for the “Plant response rating, Kochia” value in the experiment with kochia (setting [5]) and in the experiment with kochia (setting [3]) were 50 and 10, respectively. The “Kochia plant response rating” value in the experiment on kochia (setting [8]) is 80. The “Plant response rating, Ragweed” value in the experiment on ragweed (setting [5]) and in the experiment on ragweed (setting [3]) was 0 throughout. Besides, in the experiment with ragweed (setting [8]), the “Ragweed plant response rating” value is recorded as 0. Further, the “Plant response rating, Ryegrass, Italian” value is given as 50 with ryegrass, Italian (setting [5]) and 0 with ryegrass, Italian (setting [3]). The “Ryegrass, Italian plant response rating” value with ryegrass, Italian (setting [8]) was found to be 40. Further, the “Plant response rating, Blackgrass” value turned out to be 50 in the experiment with blackgrass (setting [9]) and 60 in the experiment on blackgrass (setting [7]). Also, the “Plant response rating, Galium” value in the experiment with galium (setting [9]) came out at 60.
